Data published in patent US8952042B2, “FXR (NR1H4) binding and activity modulating compounds” (Phenex Pharmaceuticals AG, priority 2009, dated 2015).

Legend:
[1] = target: T1, FXR ligand binding domain (Homo sapiens, UniProt Q96RI1); experiment: Mammalian One Hybrid (M1H) Gal4 reporter assay in HEK293 cells; type: cell-based; settings: potency range
T1 construct: expressed in transfected cells; host or cells: HEK293 cells (DSMZ), transient transfection of pCMV-BD-FXR-LBD
T1 sequence (Q96RI1 187-472 isoform Q96RI1-2): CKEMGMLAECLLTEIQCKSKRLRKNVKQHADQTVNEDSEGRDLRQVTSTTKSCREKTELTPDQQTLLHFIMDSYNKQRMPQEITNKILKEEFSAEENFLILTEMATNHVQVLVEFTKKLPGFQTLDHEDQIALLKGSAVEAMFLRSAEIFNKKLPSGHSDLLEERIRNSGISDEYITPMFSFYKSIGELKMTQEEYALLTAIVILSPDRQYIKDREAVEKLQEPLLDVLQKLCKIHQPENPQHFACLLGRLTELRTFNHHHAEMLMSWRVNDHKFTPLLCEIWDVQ
Protocol: Determination of a ligand mediated Gal4 promoter driven transactivation to quantify ligand binding mediated activation of FXR was performed as follows: The cDNA part encoding the FXR ligand binding domain was cloned into vector pCMV-BD (Stratagene) as a fusion to the yeast GAL4 DNA binding domain under the control of the CMV promoter. The amino acid boundaries of the ligand binding domain were amino acids 187-472 of Database entry NM_005123 (RefSeq). The plasmid pFR-Luc (Stratagene) was used as the reporter plasmid, containing a synthetic promoter with five tandem repeats of the yeast GAL4 binding sites, driving the expression of the Photinus pyralis (American firefly) luciferase gene as the reporter gene. In order to improve experimental accuracy the plasmid pRL-CMV (Promega) was cotransfected. pRL-CMV contains the constitutive CMV promoter, controlling the expression of the Renilla reniformis luciferase. All Gal4 reporter gene assays were done in HEK293 cells (obtained from DSMZ, Braunschweig, Germany) grown in MEM with L-Glutamine and Earle's BSS supplemented with 10% fetal bovine serum, 0.1 mM nonessential amino acids, 1 mM sodium pyruvate, and 100 units Penicillin/[…] per mL at 37° C. in 5% CO2. Medium and supplements were obtained from Invitrogen. For the assay, […] were plated per well in 96 well plates in 100 μL per well MEM without Phenol Red and L-Glutamine and with Earle's BSS supplemented with 10% charcoal/dextran treated FBS (HyClone, South Logan, Utah), 0.1 mM nonessential amino acids, 2 mM glutamine, 1 mM sodium pyruvate, and 100 units Penicillin/[…] per mL, incubated at 37° C. in 5% CO2. The following day the cells were >90% confluence. Medium was removed and cells were transiently transfected using 20 μL per well of a OptiMEM—polyethylene-imine-based transfection-reagent (OptiMEM, Invitrogen; Polyethyleneimine, Aldrich Cat No. 40, 827-7) including the three plasmids described above. MEM with the same composition as used for plating cells was added 2-4 h after addition of transfection mixture. Then compound stocks, prediluted in MEM were added (final vehicle concentration not exceeding 0.1%). Cells were incubated for additional 16 h before firefly and renilla luciferase activities were measured sequentially in the same cell extract using a Dual-Light-Luciferase-Assay system (Dyer et al., Anal. Biochem. 2000, 282, 158-161). All experiments were done in triplicates.

[2] = UV photostability, irradiation at 254 nm, 1H NMR; type: physicochemical; settings: 70 h UV irradiation at 254 nm
Protocol: The compounds of interest were dissolved using ethanol and their UV spectrum was analyzed to determine their λmax to establish an irradiation wavelength to be used in the study (see FIG. 2). The best wavelength for testing the UV stability of the —CH═CH— double bond was determined to be 254 nm. Further material of the compounds was then dissolved in deuterated ethanol and the ^1H NMRs (400 MHz) analyzed (T=0). Each sample was then recovered from the NMR tube and subjected to UV irradiation (254 nm) for 4 h, 15 h and 70 h. At the respective timepoints the individual samples were re-analyzed by ^1H NMR and the signal for the —CH═CH— protons evaluated to assess the percent of remaining intact double bond. Other changes in the chemical shift signals were also analyzed for further changes on the overall structure of the molecules.

[3] = Pharmacokinetics in rat after intravenous administration 1 mg/kg; type: in vivo, Male Sprague Dawley Rat; settings: for plasma levels as compared to GW4064: Male Sprague Dawley Rat, Table 3; for AUC(0-inf) / MRT last / Tmax / Vd / half-life / concentration at 0.083 hr / concentration at 0.25 hr / concentration at 0.5 hr / concentration at 1 hr / concentration at 2 hr / concentration at 4 hr / Cmax / AUC(0-t): male, Sprague Dawley, plasma; for AUC(0-inf) / MRT last / Tmax / Vd / half-life / concentration at 0.083 hr / concentration at 0.25 hr / concentration at 0.5 hr / concentration at 1 hr / concentration at 2 hr / concentration at 4 hr / AUC(0-t): iv; for AUC(0-inf) / MRT last / Tmax / Vd / half-life / concentration at 0.083 hr / concentration at 0.25 hr / concentration at 0.5 hr / concentration at 1 hr / concentration at 2 hr / concentration at 4 hr / Cmax / AUC(0-t) / AUC Extrapolated / CI: rat; for AUC(0-inf) / MRT last / Tmax / Vd / half-life / concentration at 0.083 hr / concentration at 0.25 hr / concentration at 0.5 hr / concentration at 1 hr / concentration at 2 hr / concentration at 4 hr / Cmax / AUC Extrapolated / CI: 1 mg/kg i.v.; for concentration at 0.5 hr: 0.50 hr; for Cmax: footnote: Co for Intravenous; for AUC(0-t): 1 mg/kg, read-out: #AUC(0-8)
Protocol: (§1) Compounds were applied perorally by gavage at 5 mg/kg each and by i.v. Injection at 1 mg/kg each to male 12 weeks old C57BI/6J or Sprague Dawley rats and plasma concentrations of the test items were determined by LC-MS/MS after time points as indicated. In the case of Cynomolgus monkeys ([…]), the dose was adjusted to 12 mg/kg p.o., no i.v. injection was given (FIG. 1a, 1b and Table 2).
(§2) A solution of 2.5 mg/mL of each test item was produced by diluting them in the vehicle, 0.5% Hydroxypropyl-Methylcellulose (w/v) in 20 mM phosphate buffered saline pH 7.4. The solutions were stirred overnight at room temperature and heated to 40° C. for 10 minutes, resulting in fully homogenous suspension. The application was performed by administrating the solution perorally to the mice, with an application volume of 5 mL/kg. For each time point three mice or rats were used. In case of the Cynomolgus monkeys blood samples were obtained by repeated vein puncture. Blood samples were treated with L1-heparin during collection procedure and stored on ice until centrifugation at 645 g (5 min, 4° C.). Plasma was harvested and kept at −20° C. until being assayed. To 50 μL of plasma sample […] acetonitrile containing an internal standard was added. Samples were vigorously shaken and centrifuged for 10 minutes at 6000 g and 20° C. An aliquot of the particle-free supernatant was transferred to 200 μL sampler vials and subsequently subjected to LC MS/MS for quantification.

[4] = Pharmacokinetics in rat after oral administration 5 mg/kg; type: in vivo, Male Sprague Dawley Rat; settings: for AUC(0-inf) / Cmax / MRT last / Tmax / half-life / bioavailability / AUC(0-t): male, Sprague Dawley, plasma; for AUC(0-inf) / Cmax / MRT last / Tmax / half-life / AUC(0-t) / AUC Extrapolated / CI / Vd: oral 5 mg/kg; for bioavailability: oral 5 mg/kg vs i.v. 1 mg/kg, read-out: Absolute Bioavailability; for AUC(0-t): read-out: AUC(0-8)
Protocol: as §1, §2

Structure (SMILES)	EC50 [1]	plasma levels as compared to GW4064 [3]	AUC(0-inf) [3]	MRT last [3]	Tmax [3]	Vd [3]	half-life [3]	concentration at 0.083 hr [3]	concentration at 0.25 hr [3]	concentration at 0.5 hr [3]	concentration at 1 hr [3]	concentration at 2 hr [3]	concentration at 4 hr [3]	Cmax [3]	AUC(0-t) [3]	AUC Extrapolated [3]	CI [3]	AUC(0-inf) [4]	Cmax [4]	MRT last [4]	also measured
O=C(O)c1cccc(C2CC2c2ccc(OCc3c(-c4c(Cl)cccc4Cl)noc3C3CC3)cc2Cl)c1 (racemic) [Example 4, 3-(2-(2-chloro-4-((5-cyclopropyl-3-(2,6-dichlorophenyl)isoxazol-4-yl)methoxy)phenyl)-cyclopropyl)benzoic acid]	10 to 100 nM	substantially higher	923 ng·h/mL	49.8 min	4.98 min	1.79 L/kg	68.4 min	1190 ng/mL	749 ng/mL	451 ng/mL	202 ng/mL	78.9 ng/mL	44.5 ng/mL	1500 ng/mL	850 ng·h/mL	7.94%	18.0508 mL/min/kg	406 ng·h/mL	93.1 ng/mL	178 min	behaviour in 1H NMR spectrum after prolonged UV irradiation [2]: inert; Tmax [4]: 30 min; half-life [4]: 245 min; bioavailability [4]: 8.8%; AUC(0-t) [4]: 287 ng·h/mL; AUC Extrapolated [4]: 33.93%; CI [4]: 205.0343 mL/min/kg; Vd [4]: 72.49139 L/kg
O=C(O)c1ccc(C2CC2c2ccc(OCc3c(-c4c(Cl)cccc4Cl)noc3C3CC3)cc2Cl)cc1 (racemic) [Example 12, 4-(2-(2-chloro-4-((5-cyclopropyl-3-(2,6-dichlorophenyl)isoxazol-4-yl)methoxy)phenyl)cyclopropyl)benzoic acid]	10 to 100 nM	substantially higher	440 ng·h/mL	46.8 min	4.98 min	4.82 L/kg	88.2 min	661 ng/mL	359 ng/mL	174 ng/mL	84.6 ng/mL	37.7 ng/mL	19.2 ng/mL	895 ng/mL	399 ng·h/mL	9.28%	37.8772 mL/min/kg	681 ng·h/mL	210 ng/mL	145 min	Tmax [4]: 30 min; half-life [4]: 167 min; bioavailability [4]: 30.9%; AUC(0-t) [4]: 570 ng·h/mL; AUC Extrapolated [4]: 16.32%; CI [4]: 122.39 mL/min/kg; Vd [4]: 29.44442 L/kg
